Laboratory results as given in ChEMBL document CHEMBL4052669, “Synthesis, molecular modelling and CYP24A1 inhibitory activity of novel of (E)-N-(2-(1H-imidazol-1-yl)-2-(phenylethyl)-3/4-styrylbenzamides” (Bioorg Med Chem, 2017).

Molecular target: T1, 1,25-dihydroxyvitamin D(3) 24-hydroxylase, mitochondrial (Homo sapiens, UniProt Q07973)
T1 sequence (Q07973 whole entry): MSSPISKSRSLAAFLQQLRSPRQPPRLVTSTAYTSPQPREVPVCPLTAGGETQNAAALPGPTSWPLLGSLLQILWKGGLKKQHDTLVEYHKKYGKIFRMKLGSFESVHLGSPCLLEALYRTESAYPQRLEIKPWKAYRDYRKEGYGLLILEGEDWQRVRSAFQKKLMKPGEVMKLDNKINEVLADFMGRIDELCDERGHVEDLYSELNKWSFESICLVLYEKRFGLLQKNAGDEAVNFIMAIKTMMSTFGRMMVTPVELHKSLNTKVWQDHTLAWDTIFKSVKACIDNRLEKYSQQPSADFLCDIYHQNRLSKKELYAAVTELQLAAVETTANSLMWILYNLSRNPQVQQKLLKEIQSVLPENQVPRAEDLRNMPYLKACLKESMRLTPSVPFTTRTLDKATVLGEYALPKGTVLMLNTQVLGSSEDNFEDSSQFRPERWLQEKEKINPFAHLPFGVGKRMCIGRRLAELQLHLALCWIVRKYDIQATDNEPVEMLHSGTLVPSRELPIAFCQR
Assay: Inhibition of MBP-tagged human CYP24A1 expressed Escherichia coli BL21-Gold(DE3) incubated for 25 mins in presence of Adx, AdR 1,25(OH)2D3 and NADPH by HPLC method

Row | Compound | IC50 [nM]
1 | COc1ccc(/C=C/c2ccc(C(=O)NCC(c3ccc(Cl)cc3)n3ccnc3)cc2)cc1OC (stereo not given) | 120
2 | Cc1ccc(C(CNC(=O)c2ccc(/C=C/c3ccccc3)cc2)n2ccnc2)cc1C (stereo not given) | 310
3 | O=C(NCC(c1ccc(Cl)cc1)n1ccnc1)c1ccc(/C=C/c2ccccc2)cc1 (stereo not given) | 210
4 | O=C(NCC(c1ccccc1)n1ccnc1)c1cccc(/C=C/c2ccccc2)c1 (stereo not given) | 190
5 | O=C(NCC(c1ccccc1)n1ccnc1)c1cccc(/C=C/c2ccccc2C(F)(F)F)c1 (stereo not given) | 340
6 | O=C(NCC(c1ccc(C(F)(F)F)cc1)n1ccnc1)c1cccc(/C=C/c2ccccc2)c1 (stereo not given) | 150
7 | O=C(NCC(c1ccc(C(F)(F)F)cc1)n1ccnc1)c1ccc(/C=C/c2ccccc2)cc1 (stereo not given) | 180
8 | COc1ccc(C(CNC(=O)c2ccc(/C=C/c3ccccc3)cc2)n2ccnc2)cc1 (stereo not given) | 110
9 | O=C(NCC(c1ccccc1C(F)(F)F)n1ccnc1)c1ccc(/C=C/c2ccccc2)cc1 (stereo not given) | 350
10 | O=C(NCC(c1ccc(Cl)cc1)n1ccnc1)c1cccc(/C=C/c2ccccc2)c1 (stereo not given) | 160
